Measurements taken from ChEMBL document CHEMBL1795311, “Synthesis, antiproliferative activity, and mechanism of action of a series of 2-{[(2E)-3-phenylprop-2-enoyl]amino}benzamides” (Eur J Med Chem, 2011).
pIC50: −log10 of the molar value.

How the values were obtained:
K562 [1] = assay: Antiproliferative activity against human K562 cells at 10 uM after 48 hrs by trypan blue assay; format: functional; conditions: K562, 48 h, read-out: GI
K562 [2] = assay: Growth inhibition of human K562 cells after 48 hrs by trypan blue assay; format: functional, cell-based; conditions: K562, 48 h

SMILES | pIC50 (K562 [2]) | inhibition of growth at 10 µM (K562 [1]) [%]
NC(=O)c1cc(Br)ccc1NC(=O)/C=C/c1cccc(Br)c1 | < 5.00 | 45.9
NC(=O)c1cc(Cl)ccc1NC(=O)/C=C/c1cccc(Br)c1 | < 5.00 | 27
NC(=O)c1cc(Cl)ccc1NC(=O)/C=C/c1ccc(Cl)cc1 | < 5.00 | 31
Cc1ccccc1/C=C/C(=O)Nc1ccc(Cl)cc1C(N)=O | 5.02 | 52.2
NC(=O)c1cc(Br)ccc1NC(=O)/C=C/c1cccc(Cl)c1 | < 5.00 | 25.5
NC(=O)c1cc(Br)ccc1NC(=O)/C=C/c1ccccc1Br | < 5.00 | 46.2
Cc1ccc(/C=C/C(=O)Nc2ccc(Cl)cc2C(N)=O)cc1 | 5.20 | 64
NC(=O)c1cc(Cl)ccc1NC(=O)/C=C/c1cccc(Cl)c1 | < 5.00 | 28.2
COc1cc2c(c(OC)c1OC)-c1ccc(OC)c(=O)cc1[C@@H](NC(C)=O)CC2 [COLCHICINE] | 7.70 | 63.6

The next lines start with results.

pIC50 (K562 [2]) | SMILES | inhibition of growth at 10 µM (K562 [1]) [%]
< 5.00 | NC(=O)c1ccccc1NC(=O)/C=C/c1ccccc1 | 14.2
5.13 | NC(=O)c1cc(Cl)ccc1NC(=O)/C=C/c1ccccc1Cl | 58
5.09 | NC(=O)c1cc(Br)ccc1NC(=O)/C=C/c1ccccc1Cl | 59
< 5.00 | NC(=O)c1cc(Br)ccc1NC(=O)/C=C/c1ccc(Cl)cc1 | 22
< 5.00 | Cc1ccccc1/C=C/C(=O)Nc1ccc(I)cc1C(N)=O | 26.3
< 5.00 | Cc1ccccc1/C=C/C(=O)Nc1ccc(Br)cc1C(N)=O | 43.2
5.00 | NC(=O)c1cc(Cl)ccc1NC(=O)/C=C/c1ccccc1Br | 49
< 5.00 | Cc1cccc(/C=C/C(=O)Nc2ccc(Br)cc2C(N)=O)c1 | 43.8
< 5.00 | Cc1ccc(/C=C/C(=O)Nc2ccc(Br)cc2C(N)=O)cc1 | 45.9
< 5.00 | Cc1cccc(/C=C/C(=O)Nc2ccc(Cl)cc2C(N)=O)c1 | 37.8
